{"source": "patent US9132191B2", "about": "“Compositions and methods of preventing or ameliorating abnormal thrombus formation and cardiovascular disease” (Yale University, priority 2011, dated 2015)", "key": {"washed platelet": {"tested_on": "washed platelet", "assay": "Aggregometry of washed platelets incubated with AR inhibitors (Example 12)", "format": "cell-based", "conditions": "Homo sapiens, 10 μM inhibitor, 1 hour at 37° C., collagen 1 μg/mL, light transmission 5 min, read-out: % reduction (platelet aggregation, light transmission)", "method": "Platelet-poor plasma (PPP) was obtained by centrifugation of the rest of the blood at 1400 g at 25° C. for 10 min. The PRP was adjusted with PPP to 2−3×10^8 platelets/mL suspensions. For the washed platelets, PRP was obtained by centrifugation at 250 g for 15 min, and platelets were sedimented at 1,000 g for 15 min, and then resuspended in washing buffer (103 mmol/L NaCl, 5 mmol/L KCl, 1 mmol/L MgCl2, 5 mmol/L glucose, 36 mmol/L citric acid) at pH 6.5 containing 3.5 mg/mL bovine serum albumin (Sigma). After sedimentation, the platelets were washed twice in this buffer and resuspended at 2−3×10^8 platelets/mL in the buffer composed of 5 mmol/L HEPES, 137 mmol/L NaCl, 2 mmol/L KCl, 1 mmol/L MgCl2, 12 mmol/L NaHCO3, 0.3 mmol/L NaH2PO4, 5.5 mmol/L glucose, pH 7.4, containing 3.5 mg/mL BSA (Saxena et al., 1989, Science 243:1596-1599).\nWashed platelet (1×10^8) were incubated with AR inhibitors for 1 hour at 37° C. For aggregometry studies, 0.5 μL of collagen solution (with a final concentration of 1 μg/mL) was added into 500 μL of washed platelet, and then the light transmission was measured for 5 min. […] The percentage of platelet aggregation, as measured in terms of light transmission, is summarized in FIG. 17, and representative tracings are depicted in FIG. 18."}, "aldose reductase": {"target": "aldose reductase (Homo sapiens, UniProt P15121)", "conditions": "aldose reductase inhibitor IC50; no method given; cited from earlier work"}, "human platelets [1]": {"tested_on": "human platelets", "assay": "Collagen-induced platelet aggregation (light transmission, Lumi-aggregometer)", "format": "cell-based", "conditions": "NG or HG 90 min; 1 μg/mL collagen; SB239063 50 μmol/L, U73122 5 μmol/L, quercetin 10 μmol/L, SQ29548 10 μmol/L, NAC, apocynin 100 μmol/L", "method": "Venous blood was drawn from volunteers at Yale University Medical School, free from medication known to interfere with platelet function. […] PRP was obtained by centrifugation of blood at 250 g at 37° C. for 15 min and the platelet count in the PRP was estimated by an automated cell counter.\nPlatelet-poor plasma (PPP) was obtained by centrifugation of the rest of the blood at 1400 g at 25° C. for 10 min. The PRP was adjusted with PPP to 2−3×10^8 platelets/mL suspensions.\nPlatelet aggregation was monitored at 37° C. with constant stirring (1,200 rpm) in a dual-channel Lumi-aggregometer (Chrono-Log model 700). Platelet aggregation was measured as the increase in light transmission for 10 min, starting with the addition of 0.5 μL of 1 mg/mL collagen (Chrono-Log) as a proaggregatory stimulus. For measuring ADP-stimulated platelet aggregation, 1 μM ADP (Chrono-Log) was used. The maximum aggregation was expressed as percentage of maximum light transmission, with non-stimulated platelet-rich plasma being 0% and platelet-poor plasma 100%."}, "human platelets [2]": {"tested_on": "human platelets", "assay": "Oxidative stress and superoxide level in collagen-stimulated platelets", "format": "cell-based", "conditions": "NG and HG, epalrestat 10 μmol/L, 10 mmol/L NAC, 100 μmol/L apocynin", "method": "The oxidative stress and superoxide level was measured by a commercial kit according to the manufacturer's instruction (Total ROS/Superoxide Detection Kit, Enzo Life Sciences). Platelets were sedimented by centrifugation at 400 g for 5 min, and then washed. The washed platelets were incubated with 1 μmol/L ROS/Superoxide detection mix for 60 min at 37° C. in the presence or absence of 1 μg/mL collagen."}, "[3]": {"tested_on": "thromboxane receptor (TP)", "assay": "Surface expression of thromboxane receptor in collagen-stimulated platelets", "format": "cell-based, human", "conditions": "HG; 1 μg/mL collagen; epalrestat 10 μmol/L, NAC, apocynin", "method": "(§1) Primary antibodies against the following proteins were diluted and used according to the manufacturer's instructions: AR (sc-17732, Santa Cruz Biotechnology), PKC α (sc-208, Santa Cruz Biotechnology) and its phosphorylated form (sc-136018, Thr638, Santa Cruz Biotechnology), PKC βII (NB110-57358, Novus Biologicals) and its phosphorylated form (NSB964, Thr641, Novus Biologicals), PKC δ (2058, Cell Signaling) and its phosphorylated form (9376, Ser643, Cell Signaling), PLC-γ1 (H00005335-A01, Novus Biologicals) and its phosphorylated form (07866, Tyr783, Millipore), PLC-γ2 (NB110-66669, Novus Biologicals) and its phosphorylated form (NB110-57424, Tyr1217, Novus Biologicals), p38α MAPK (9212, Cell Signaling) and its phosphorylated form (AF869, T180/Y182, R&D Systems), and TX receptor (NBP1-40198, Novus Biologicals). Secondary antibodies against rabbit and mouse IgG (Thermo Scientific) were diluted 1:5000 before use. The membrane was re-probed with antibodies against Na^+/K^+-ATPase (NB300-147, Novus Biologicals), a plasma membrane marker, and GAPDH (sc-20357, Santa Cruz Biotechnology), a cytoplasmic marker, for normalization.\nPlatelets were sedimented by centrifugation at 2,500 g for 5 min. The membrane and cytosolic fractions of total extracts were separated using the subcellular protein fractionation kit (Thermo Scientific). […]"}, "p38α MAPK": {"tested_on": "p38α MAPK", "assay": "p38α MAPK phosphorylation in collagen-stimulated platelets (phospho-kinase array, Western blot)", "format": "cell-based, human", "conditions": "NG and HG; 1 μg/mL collagen 10 min; epalrestat 10 μmol/L, U73122, NAC 1 mmol/L, quercetin 10 μmol/L", "method": "Platelets were homogenized in the lysis buffer (25 mmol/L Tris HCl, pH 7.6, 150 mmol/L NaCl, 1% NP-40, 1% sodium deoxycholate, 0.1% SDS) with the addition of 0.1% protease inhibitor and 0.1% phosphatase inhibitor (Thermo Scientific). The supernatant was collected after centrifugation at 13,000 rpm for 15 min at 4° C. The samples are loaded in 4×SDS-Laemmli sample buffers and boiled for 10 min. Equal amounts of total extracts were subjected to SDS-PAGE. The proteins were transferred to nitrocellulose membrane and probed with the indicated antibodies, and the antigen-antibody complex was detected by enhanced chemiluminescence reagents (Thermo Scientific).\nas §1\nThe human phospho-kinase array was performed according to the manufacturer's instruction (R&D Systems). […] The signals for the amount of phosphorylated proteins bound were measured by the chemiluminescent detection method."}, "human platelets [4]": {"tested_on": "human platelets", "assay": "Thromboxane biosynthesis (TXB2 EIA in platelet supernatant)", "format": "cell-based", "conditions": "NG or HG; 1 μg/mL collagen; U73122 5 μmol/L, SB239063 50 μmol/L, SQ29548 10 μmol/L", "method": "Platelets were sedimented by centrifugation at 2,500 g for 5 min, and the supernatant was harvested for the measurement of TX levels. Since TXA2 is rapidly hydrolyzed into TXB2, the level of TXB2 was measured using TXB2 EIA kit according to the manufacturer's ELISA instructions (Cayman Chemical)."}, "platelet COX-1": {"target": "T1, platelet COX-1 (Homo sapiens, UniProt P23219)", "T1 construct": "in whole blood allowed to clot for 1 h at 37° C; (serum TXB2) which is an index of maximal capacity of platelets; endogenous in cells; host or cells: platelets in whole blood of diabetic patients and healthy subjects", "T1 sequence (P23219 24-599)": "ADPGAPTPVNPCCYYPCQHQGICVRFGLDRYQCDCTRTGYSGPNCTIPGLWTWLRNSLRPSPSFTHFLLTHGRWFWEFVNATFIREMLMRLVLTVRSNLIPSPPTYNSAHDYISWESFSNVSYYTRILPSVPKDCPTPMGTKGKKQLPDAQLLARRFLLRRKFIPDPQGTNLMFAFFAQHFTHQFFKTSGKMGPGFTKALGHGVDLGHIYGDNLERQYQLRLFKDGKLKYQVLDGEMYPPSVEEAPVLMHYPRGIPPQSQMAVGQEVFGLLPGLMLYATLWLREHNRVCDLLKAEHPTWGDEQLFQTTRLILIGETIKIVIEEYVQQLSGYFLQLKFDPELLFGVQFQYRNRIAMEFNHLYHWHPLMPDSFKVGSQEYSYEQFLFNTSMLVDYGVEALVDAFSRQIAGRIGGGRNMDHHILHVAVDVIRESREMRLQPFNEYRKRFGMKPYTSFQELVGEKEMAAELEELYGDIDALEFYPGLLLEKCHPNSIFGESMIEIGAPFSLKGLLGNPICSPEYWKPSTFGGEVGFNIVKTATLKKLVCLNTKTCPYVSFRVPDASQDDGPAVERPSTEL", "assay": "Residual serum TXB2 generation in clotted whole blood (index of platelet COX-1 activity)", "format": "cell-based", "description": "Patients with the presence of type 2 diabetes (n=102) were recruited from the Hospital Policlinico G.B. Rossi (Verona, Italy) and San Pio da Pietrelcina Hospital (Vasto, Italy). Exclusion criteria included concurrent cancer, inflammatory disorder, immunological disorder, surgery or major trauma in the previous month or use of nonsteroidal anti-inflammatory drugs (NSAIDs) or corticosteroids in the previous month. Both the diabetic population and the severe cardiovascular disease population were chronically treated with low dose aspirin for at least one month (enteric coated aspirin 100 mg for at least 7 consecutive days). After recruitment the patients received a standard oral dose of 100 mg for seven days at 8.00 pm. […] The 10 healthy subjects recruited were from the staff of Hospital Policlinico G.B. Rossi (Verona Italy) with normal ECG and echocardiograms and no evidence of atherosclerosis by carotid artery sonography. The healthy subjects were all treated with aspirin 100 mg daily for 1 week.\n(serum TXB2) which is an index of maximal capacity of platelets to generate TXB2.\nIn order to verify whether in these patients higher generation of platelet TXB2 was due to the phenomenon of aspirin resistance which implies that the aspirin target, i.e., COX-1, is less sensitive to inactivation by aspirin, residual generation of TXB2 was assessed after adding aspirin (50 μg/mL) in vitro."}}, "note": "pIC50: −log10 of the molar value."}
{"compound": "O=C1CC2(C(=O)N1)C(=O)N(Cc1ccc(Br)cc1F)C(=O)c1ccc(F)cc12", "note": "(racemic) [IDD 62, (±)-2-(4-Bromo-2-fluorobenzyl)-6-fluorospiro[1,2,3,4-tetrahydroisoquinoline-4,3′-pyrrolidine]-1,2′,3,5′-tetraone]", "values": [{"measurement": "inhibition at 10 µM", "setting": "washed platelet", "result": 59, "unit": "%"}]}
{"compound": "O=C1NC(=O)[C@@]2(CCOc3ccc(F)cc32)N1", "note": "[IDD 60, (4S)-6-Fluoro-2,3-dihydro-2′H,5′H-spiro[chromene-4,4′-imidazolidine]-2′,5′-dione]", "values": [{"measurement": "inhibition at 10 µM", "setting": "washed platelet", "result": 67, "unit": "%"}]}
{"compound": "COc1ccc2c(C(=S)N(C)CC(=O)O)cccc2c1C(F)(F)F", "note": "[IDD 63, N-{[6-methoxy-5-(trifluoromethyl)-1-naphthyl]carbothioyl}-N-methylglycine]", "values": [{"measurement": "inhibition at 10 µM", "setting": "washed platelet", "result": 78, "unit": "%"}]}
{"compound": "O=C(O)Cc1nn(Cc2nc3cc(C(F)(F)F)ccc3s2)c(=O)c2ccccc12", "note": "[IDD 65, 3,4-Dihydro-4-oxo-3-[[5-(trifluoromethyl)-2-benzothiazolyl]methyl]-1-phthalazineacetic acid]", "values": [{"measurement": "inhibition at 10 µM", "setting": "washed platelet", "result": 50, "unit": "%"}]}
{"compound": "CCCCCOc1ccc(C2SC(=O)NC2=O)cc1OCC", "note": "(centres unmarked) [IDD 73, 5-[3-Ethoxy-4-(pentyloxy)phenyl]-2,4-thiazolidinedione]", "values": [{"measurement": "pIC50", "setting": "aldose reductase", "result": 6.53}, {"measurement": "inhibition at 10 µM", "setting": "washed platelet", "result": 54, "unit": "%"}]}
{"compound": "O=C(O)Cn1c(=O)n(Cc2ccc(Br)cc2F)c(=O)c2ccc(Cl)cc21", "note": "[IDD 148, 3-(2-Fluoro-4-bromobenzyl)-7-chloro-2,4(1H,3H)-dioxoquinazoline-1-acetic acid]", "values": [{"measurement": "inhibition at 10 µM", "setting": "washed platelet", "result": 61, "unit": "%"}]}
{"compound": "O=C(O)CN1C(=O)C(=O)N(Cc2cccc([N+](=O)[O-])c2)C1=O", "note": "[IDD 314, 3-(3-nitrobenzyl)-2,4,5-trioxoimidazolidine-1-acetic acid]", "values": [{"measurement": "pIC50", "setting": "aldose reductase", "result": 6.14}, {"measurement": "inhibition at 10 µM", "setting": "washed platelet", "result": 52, "unit": "%"}]}
{"compound": "O=C(O)Cn1cc(Cc2nc3c(F)c(F)cc(F)c3s2)c2ccccc21", "note": "[IDD 676, [3-(4,5,7-Trifluorobenzothiazol-2-ylmethyl)indol-1-yl]acetic acid]", "values": [{"measurement": "inhibition at 10 µM", "setting": "washed platelet", "result": 54, "unit": "%"}]}
{"compound": "CC(=O)N[C@@H](CS)C(=O)O", "note": "[NAC, N-acetyl-cysteine]", "values": [{"measurement": "collagen-induced platelet aggregation (signalling inhibitors)", "setting": "human platelets [1]", "result": "attenuated the collagen-induced platelet aggregation to a similar extent as ARI"}, {"measurement": "level of oxidative stress and superoxide", "setting": "human platelets [2]", "result": "significantly reduced"}, {"measurement": "surface expression of TX receptor (TP)", "setting": "[3]", "result": "significantly attenuated"}, {"measurement": "collagen-induced phosphorylation of p38α MAPK (Western blot)", "setting": "p38α MAPK", "result": "significantly reduced"}]}
{"compound": "COc1nccc(-c2c(-c3ccc(F)cc3)ncn2[C@H]2CC[C@H](O)CC2)n1", "note": "[SB239063, trans-4-[4-(4-fluorophenyl)-5-(2-methoxy-4-pyrimidinyl)-1H-imidazol-1-yl]cyclohexanol]", "values": [{"measurement": "collagen-induced platelet aggregation (signalling inhibitors)", "setting": "human platelets [1]", "result": "reduced platelet aggregation"}, {"measurement": "collagen-induced TXB2 (TXA2) release (signalling inhibitors)", "setting": "human platelets [4]", "result": "attenuated the collagen-induced TXB2 release"}]}
{"compound": "O=C(O)CCC/C=C\\C[C@@H]1[C@H](CNNC(=O)Nc2ccccc2)[C@H]2CC[C@@H]1O2", "note": "[SQ29548, 1S-[1-alpha,2-beta-(5Z),3-beta,4-alpha]-7-[3-[[2-[(phenylamino)carbonyl]hydrazino]methyl]-7-oxabicyclo[2.2.1]hept-2-yl]-5-heptenoic acid]", "values": [{"measurement": "collagen-induced platelet aggregation (signalling inhibitors)", "setting": "human platelets [1]", "result": "attenuated the collagen-induced platelet aggregation"}, {"measurement": "collagen-induced TXB2 (TXA2) release (signalling inhibitors)", "setting": "human platelets [4]", "result": "attenuated collagen-induced TXA2 release"}]}
{"compound": "COc1ccc2c(c1)CC[C@@H]1[C@@H]2CC[C@]2(C)[C@@H](NCCCCCCN3C(=O)C=CC3=O)CC[C@@H]12", "note": "[U73122]", "values": [{"measurement": "collagen-induced platelet aggregation (signalling inhibitors)", "setting": "human platelets [1]", "result": "reduced platelet aggregation"}, {"measurement": "collagen-induced TXB2 (TXA2) release (signalling inhibitors)", "setting": "human platelets [4]", "result": "attenuated the collagen-induced TXB2 release"}, {"measurement": "collagen-induced phosphorylation of p38α MAPK (Western blot)", "setting": "p38α MAPK", "result": "significantly reduced"}]}
{"compound": "COc1cc(C(C)=O)ccc1O", "note": "[apocynin]", "values": [{"measurement": "collagen-induced platelet aggregation (signalling inhibitors)", "setting": "human platelets [1]", "result": "attenuated the collagen-induced platelet aggregation to a similar extent as ARI"}, {"measurement": "level of oxidative stress and superoxide", "setting": "human platelets [2]", "result": "significantly reduced"}, {"measurement": "surface expression of TX receptor (TP)", "setting": "[3]", "result": "significantly attenuated"}]}
{"compound": "CC(=O)Oc1ccccc1C(=O)O", "note": "[aspirin, Acetylsalicylic Acid]", "values": [{"measurement": "diabetic patients with residual TXB2 levels higher than 4 ng/mL with aspirin in vitro", "setting": "platelet COX-1; aspirin 50 μg/mL added in vitro", "result": 2, "unit": "%"}, {"measurement": "residual TXB2 generation after adding aspirin in vitro", "setting": "platelet COX-1; aspirin 50 μg/mL in vitro, diabetic patients and healthy subjects on aspirin 100 mg/day, blood clotted 1 h at 37° C.", "result": "further significant reduction"}, {"measurement": "diabetic patients with residual serum TXB2 higher than 4 ng/mL", "setting": "platelet COX-1; ex vivo, 12 h after the last dose of aspirin 100 mg/day", "result": 12, "unit": "%"}]}
{"compound": "O=c1c(O)c(-c2ccc(O)c(O)c2)oc2cc(O)cc(O)c12", "note": "[quercetin]", "values": [{"measurement": "collagen-induced platelet aggregation (signalling inhibitors)", "setting": "human platelets [1]", "result": "reduced platelet aggregation"}, {"measurement": "collagen-induced phosphorylation of p38α MAPK (Western blot)", "setting": "p38α MAPK", "result": "attenuated"}]}
